Source: US12697359B2, “Composition for preventing hair loss and promoting hair growth comprising postbiotic components from heat-treat Limosilactobacillus fermentum LM1020” (priority 2023, dated 2026)

Tested on: dermal papilla cells
Assay: Dermal papilla cell growth promotion effect of functional raw materials and heat-treated LM1020, alone or combined (Colby prediction)
Format: cell-based, human
Settings: for effect on growth of dermal papilla cells / Effect of promoting growth of dermal papilla cell (%) Measured value: medium lacking growth factor; for Effect of promoting growth of dermal papilla cell (%) Measured value: raw material alone or LSD mixture, without LM1020
Protocol: The effect on the growth of dermal papilla cells was confirmed when the heat-treated Limosilactobacillus fermentum LM1020 was used together with L-menthol, salicylic acid, and dexpanthenol, which are active ingredients frequently used for functional cosmetics that help relieve hair loss symptoms. After the dermal papilla cells were seeded in a 96-well plate and cultured for 24 hours, the medium in the well was replaced with a medium lacking growth factor and further cultured for 24 hours. Then, the heat-treated Limosilactobacillus fermentum LM1020, L-menthol, salicylic acid, and dexpanthenol were used alone or mixed in a ratio of […] and used for treatment of dermal papilla cells prepared by the above-described method to determine the effect on the growth of the dermal papilla cells.
A growth rate of dermal papilla cells when cultured alone and growth rates of dermal papilla cells when treated alone or in a combination of L-menthol, salicylic acid, dexpanthenol, and the heat-treated Limosilactobacillus fermentum LM1020 were calculated. Then, the effects of the respective treatment materials on the promotion of growth of dermal papilla cells were calculated using the formula below and compared with each other. All the tests were repeated three times, and the average of each result was calculated and compared. • Dermal papilla cell growth promotion effect (%)=(B−A)÷A×100 • A=Growth rate of dermal papilla cells in non-treatment group • B=Growth rate of dermal papilla cells when treated with L-menthol, salicylic acid, dexpanthenol, and heat-treated Limosilactobacillus fermentum LM1020
Meanwhile, it was confirmed that when the heat-treated Limosilactobacillus fermentum LM1020 is used for treatment together with compounds of L-menthol, salicylic acid, and dexpanthenol, it is possible to overcome the effect of the compounds on the inhibition of growth of dermal papilla cells and promote the growth of dermal papilla cells. In order to thoroughly understand their synergistic effect, the effect to be predicted was calculated using the Colby formula, and a prediction value was compared with an experimental value (measurement value) to verify whether a synergistic effect exceeding the prediction value can be achieved.

SMILES	effect on growth of dermal papilla cells	Effect of promoting growth of dermal papilla cell (%) Measured value [%]	effect on promotion of growth of dermal papilla cells compared with heat-treated LM1020 (dexpanthenol alone vs LM1020 alone)
O=C(O)c1ccccc1O [salicylic acid]	inhibit the growth of dermal papilla cells	−0.39 ± 0.80	–
CC(C)(CO)[C@@H](O)C(=O)NCCCO [dexpanthenol]	able to promote the growth of dermal papilla cells	2.35 ± 1.61	lower than that of the heat-treated Limosilactobacillus fermentum LM1020 at all concentrations
CC(C)[C@@H]1CC[C@@H](C)C[C@H]1O [L-menthol]	inhibit the growth of dermal papilla cells	−12.05 ± 3.31	–
